Measured values taken from ChEMBL document CHEMBL3102722, “Diarylacylhydrazones: Clostridium-selective antibacterials with activity against stationary-phase cells” (Bioorg Med Chem Lett, 2014).
In brackets after ≈: the same amount, converted by molar mass. Activity calls are given as the source filed them. The rule behind the calls is not given here.

Experiments:
Lacticaseibacillus casei = assay: Antibacterial activity against Lactobacillus casei ATCC 334 assessed as growth inhibition after 20 to 24 hrs; format: functional
Clostridioides difficile [1] = assay: Antibacterial activity against stationary phase of Clostridium difficile CD196 assessed as cell killing after 3 to 6 hrs; format: functional
FaDu = assay: Cytotoxicity against human FADU cells assessed as concentration required to decrease cell viability incubated for 24 hrs followed by compound washout measured after 18 hrs by resazurin dye-based assay
Streptococcus mutans = assay: Antibacterial activity against Streptococcus mutans ATCC 700610 assessed as growth inhibition after 20 to 24 hrs; format: functional
[2] = system: Bacteroides thetaiotaomicron; assay: Antibacterial activity against Bacteroides thetaiotaomicron ATCC 29148 assessed as growth inhibition after 20 to 24 hrs; format: functional
[3] = system: Limosilactobacillus reuteri; assay: Antibacterial activity against Lactobacillus reuteri ATCC 23272 assessed as growth inhibition after 20 to 24 hrs; format: functional
Escherichia coli = assay: Antibacterial activity against Escherichia coli ATCC 700927 assessed as growth inhibition after 20 to 24 hrs; format: functional
Clostridioides difficile [4] = assay: Bactericidal activity against Clostridium difficile CD196 after 20 to 24 hrs; format: functional; settings: read-out: MBC99.9
Bacteroides fragilis = assay: Antibacterial activity against Bacteroides fragilis ATCC 25285 assessed as growth inhibition after 20 to 24 hrs; format: functional; settings: NCTC 9343
Clostridium perfringens = assay: Antibacterial activity against Clostridium perfringens ATCC 13124 assessed as growth inhibition after 20 to 24 hrs; format: functional
Enterococcus faecalis = assay: Antibacterial activity against Enterococcus faecalis ATCC 47077 assessed as growth inhibition after 20 to 24 hrs; format: functional
Staphylococcus aureus = assay: Antibacterial activity against Staphylococcus aureus 8325-4 assessed as growth inhibition after 20 to 24 hrs; format: functional
Clostridioides difficile [5] = assay: Antibacterial activity against Clostridium difficile CD196 assessed as growth inhibition after 20 to 24 hrs; format: functional
Bifidobacterium longum = assay: Antibacterial activity against Bifidobacterium longum ATCC BAA-999 assessed as growth inhibition after 20 to 24 hrs; format: functional
[6] = Cytotoxicity against human HepG2 cells assessed as concentration required to decrease cell viability incubated for 24 hrs followed by compound washout measured after 18 hrs by resazurin dye-based assay; settings: read-out: Activity
Clostridioides difficile [7] = assay: Antibacterial activity against stationary phase of Clostridium difficile CD196 assessed as cell killing at 1 to 20 X MIC after 3 to 6 hrs; format: functional
Clostridioides difficile [8] = assay: Antibacterial activity against Clostridium difficile clinical isolate assessed as growth inhibition; format: functional
Clostridioides difficile [9] = assay: Antibacterial activity against Clostridium difficile 10463 clinical isolate assessed as growth inhibition after 20 to 24 hrs; format: functional
Clostridioides difficile [10] = assay: Antibacterial activity against Clostridium difficile UK6 clinical isolate assessed as growth inhibition after 20 to 24 hrs; format: functional
Clostridioides difficile [11] = assay: Antibacterial activity against Clostridium difficile GC1 clinical isolate assessed as growth inhibition after 20 to 24 hrs; format: functional
[12] = Antibacterial activity against Clostridium difficile 630 clinical isolate assessed as growth inhibition after 20 to 24 hrs; format: functional, Clostridioides difficile 630; settings: Clostridioides difficile
Clostridioides difficile [13] = assay: Antibacterial activity against Clostridium difficile VPI clinical isolate assessed as growth inhibition after 20 to 24 hrs; format: functional
Clostridioides difficile [14] = assay: Antibacterial activity against Clostridium difficile UK1 clinical isolate assessed as growth inhibition after 20 to 24 hrs; format: functional
Clostridioides difficile [15] = assay: Ratio of MBC99.9 to MIC for Clostridium difficile CD196; format: functional

Compound	MIC (Lacticaseibacillus casei)	Activity (FaDu)	MIC (Streptococcus mutans)	MIC [2]	MIC [3]	MIC (Escherichia coli)	MIC (Bacteroides fragilis)	MIC (Clostridium perfringens)	MIC (Enterococcus faecalis)	MIC (Staphylococcus aureus)	MIC (Clostridioides difficile [5])	MIC (Bifidobacterium longum)	MCC at 24 h [6]	Activity (Clostridioides difficile [7])	further results
Cc1cc(C(=O)N/N=C/c2c(O)ccc3ccccc23)[nH]n1	> 50 µg/mL	> 100 µg/mL	> 50 µg/mL	25 µg/mL (≈ 84.9 µM)	> 50 µg/mL	> 50 µg/mL	> 50 µg/mL	≤ 3.13 µg/mL	> 50 µg/mL	> 50 µg/mL	3.13 µg/mL (≈ 10.6 µM)	> 50 µg/mL	> 100 µg/mL	–	Activity (Clostridioides difficile [1]): Dose-dependent effect; MBC (Clostridioides difficile [4]): 3.13 µg/mL (≈ 10.6 µM)
Clc1ccc(COC(Cn2ccnc2)c2ccc(Cl)cc2Cl)c(Cl)c1 (stereo not given) [MICONAZOLE]	–	50 µg/mL	–	–	–	–	–	–	–	–	–	–	50 µg/mL	–	–
CCc1c(Cl)c(O)c(Cl)c(O)c1C(=O)O[C@H]1[C@H](O)[C@H](OC)[C@H](OC/C2=C\C=C\C[C@H](O)/C(C)=C/[C@H](CC)[C@@H](O[C@@H]3OC(C)(C)[C@@H](OC(=O)C(C)C)[C@H](O)[C@@H]3O)/C(C)=C/C(C)=C/C[C@@H]([C@@H](C)O)OC2=O)O[C@@H]1C [FIDAXOMICIN]	> 50 µg/mL	–	3.13 µg/mL (≈ 2.96 µM)	> 50 µg/mL	> 50 µg/mL	> 50 µg/mL	> 50 µg/mL	≤ 0.0075 µg/mL	12.5 µg/mL (≈ 11.8 µM)	3.13 µg/mL (≈ 2.96 µM)	0.18 µg/mL (≈ 0.17 µM)	≤ 0.78 µg/mL	–	inactive	MIC90 (Clostridioides difficile [8]): 0.008 µg/mL (≈ 0.00756 µM)
CN[C@H](CC(C)C)C(=O)N[C@H]1C(=O)N[C@@H](CC(N)=O)C(=O)N[C@H]2C(=O)N[C@H]3C(=O)N[C@H](C(=O)N[C@H](C(=O)O)c4cc(O)cc(O)c4-c4cc3ccc4O)[C@H](O)c3ccc(c(Cl)c3)Oc3cc2cc(c3O[C@@H]2O[C@H](CO)[C@@H](O)[C@H](O)[C@H]2O[C@H]2C[C@](C)(N)[C@H](O)[C@H](C)O2)Oc2ccc(cc2Cl)[C@H]1O [VANCOMYCIN]	> 50 µg/mL	> 200 µg/mL	1.56 µg/mL (≈ 1.08 µM)	12.5 µg/mL (≈ 8.63 µM)	> 50 µg/mL	> 50 µg/mL	12.5 µg/mL (≈ 8.63 µM)	≤ 0.78 µg/mL	3.13 µg/mL (≈ 2.16 µM)	3.13 µg/mL (≈ 2.16 µM)	1 µg/mL (≈ 0.69 µM)	≤ 0.78 µg/mL	> 200 µg/mL	inactive	MIC (Clostridioides difficile [9]): 1.5 µg/mL (≈ 1.04 µM); MIC (Clostridioides difficile [10]): 0.75 µg/mL (≈ 0.518 µM); MIC (Clostridioides difficile [11]): 1.5 µg/mL (≈ 1.04 µM); MIC [12]: 0.75 µg/mL (≈ 0.518 µM); MIC (Clostridioides difficile [13]): 1.5 µg/mL (≈ 1.04 µM); MIC (Clostridioides difficile [14]): 1.5 µg/mL (≈ 1.04 µM)
Cc1ncc([N+](=O)[O-])n1CCO [METRONIDAZOLE]	> 50 µg/mL	> 200 µg/mL	> 50 µg/mL	≤ 0.78 µg/mL	> 50 µg/mL	> 50 µg/mL	≤ 0.78 µg/mL	3.13 µg/mL (≈ 18.3 µM)	> 50 µg/mL	> 50 µg/mL	1.56 µg/mL (≈ 9.11 µM)	≤ 0.78 µg/mL	> 200 µg/mL	inactive	–
N#CC(C#N)=NNc1cccc(Cl)c1 [CARBONYL CYANIDE M-CHLOROPHENYLHYDRAZONE]	> 50 µg/mL	50 µg/mL	> 50 µg/mL	> 50 µg/mL	> 50 µg/mL	> 50 µg/mL	> 50 µg/mL	> 50 µg/mL	> 50 µg/mL	> 50 µg/mL	1.56 µg/mL (≈ 7.62 µM)	3.25 µg/mL (≈ 15.9 µM)	50 µg/mL	Active	–
O=C(N/N=C/c1c(O)ccc2ccccc12)c1ccc(-c2ccccc2)cc1	> 50 µg/mL	–	> 50 µg/mL	> 50 µg/mL	> 50 µg/mL	> 50 µg/mL	> 50 µg/mL	3.13 µg/mL (≈ 8.54 µM)	> 50 µg/mL	> 50 µg/mL	1.56 µg/mL (≈ 4.26 µM)	> 50 µg/mL	–	–	Ratio (Clostridioides difficile [15]): 2; MIC (Clostridioides difficile [9]): 3 µg/mL (≈ 8.19 µM); MIC (Clostridioides difficile [10]): 1.5 µg/mL (≈ 4.09 µM); MIC (Clostridioides difficile [11]): 1.5 µg/mL (≈ 4.09 µM); MBC (Clostridioides difficile [4]): 3.13 µg/mL (≈ 8.54 µM); MIC [12]: 1.5 µg/mL (≈ 4.09 µM); MIC (Clostridioides difficile [13]): 3 µg/mL (≈ 8.19 µM); MIC (Clostridioides difficile [14]): 1.5 µg/mL (≈ 4.09 µM)
COc1ccc2ccccc2c1/C=N/N(C)C(=O)c1ccc(C)cc1	> 50 µg/mL	–	> 50 µg/mL	> 50 µg/mL	> 50 µg/mL	> 50 µg/mL	> 50 µg/mL	> 50 µg/mL	> 50 µg/mL	> 50 µg/mL	> 50 µg/mL	> 50 µg/mL	–	–	–
Cc1ccc(C(=O)N/N=C/c2c(O)ccc3ccccc23)cc1	> 50 µg/mL	> 100 µg/mL	> 50 µg/mL	25 µg/mL (≈ 82.1 µM)	> 50 µg/mL	> 50 µg/mL	12.5 µg/mL (≈ 41.1 µM)	1.56 µg/mL (≈ 5.13 µM)	> 50 µg/mL	> 50 µg/mL	6.25 µg/mL (≈ 20.5 µM)	> 50 µg/mL	> 100 µg/mL	Active	MBC (Clostridioides difficile [4]): 6.25 µg/mL (≈ 20.5 µM)
Cc1cc(C(=O)N/N=C/c2cccc3ccccc23)[nH]n1	> 50 µg/mL	–	> 50 µg/mL	> 50 µg/mL	> 50 µg/mL	> 50 µg/mL	> 50 µg/mL	> 50 µg/mL	> 50 µg/mL	> 50 µg/mL	> 50 µg/mL	> 50 µg/mL	–	–	–
COc1ccc2ccccc2c1/C=N/NC(=O)c1ccc(C)cc1	> 50 µg/mL	–	> 50 µg/mL	> 50 µg/mL	> 50 µg/mL	> 50 µg/mL	> 50 µg/mL	> 50 µg/mL	> 50 µg/mL	> 50 µg/mL	> 50 µg/mL	> 50 µg/mL	–	–	–
